Tests used:
Assay in all cases: Histone peptide microarray
Type in all cases: binding, human
Conditions in all cases: arrays performed twice, n of 4
BPTF (PB) = test system: BPTF (PB)
Outline: (§1)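 Binding read as mean relative signal from 4 replicates; microarray held 293 synthetic histone peptides with single or combinatorial PTMs. Each GST-tagged PHD reader was applied at 0.5 μM using the optimized Petell protocol.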

ING3 = test system: ING3
Outline: as §1

PHF13 = test system: PHF13
Outline: as §1

AIRE (PP) = test system: AIRE (PP)
Outline: as §1

KDM7A = test system: KDM7A
Outline: as §1

BAZ2B = test system: BAZ2B
Outline: as §1

KDM5A (1) = test system: KDM5A (1)
Outline: as §1

PHRF1 (RP) = test system: PHRF1 (RP)
Outline: as §1

KDM5B (3) = test system: KDM5B (3)
Outline: as §1

DPF2 (PPC2W2) = test system: DPF2 (PPC2W2)
Outline: as §1

CHD4 (PPCC) = test system: CHD4 (PPCC)
Outline: as §1

CHD5 (PPCC) = test system: CHD5 (PPCC)
Outline: as §1

PHF23 = test system: PHF23
Outline: as §1

MORC3 (CW) = test system: MORC3 (CW)
Outline: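 Each reader, produced as a GST fusion and purified, was tested at 0.5 μM on synthetic histone peptides (293 in total) carrying single or combinatorial marks. Intensities averaged over four replicates.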

PHF2 = test system: PHF2
Outline: as §1

KDM4C (TTP) = test system: KDM4C (TTP)
Outline: as §1

KDM5B (1) = test system: KDM5B (1)
Outline: as §1

TAF3 = test system: TAF3
Outline: as §1

ING1 = test system: ING1
Outline: as §1

TRIM66 (PB) = test system: TRIM66 (PB)
Outline: as §1

SP140L = test system: SP140L
Outline: as §1

ING4 = test system: ING4
Outline: as §1

PHF21A = test system: PHF21A
Outline: as §1

RAG2 = test system: RAG2
Outline: as §1

PHF8 = test system: PHF8
Outline: as §1

CHD5 (PCC) = test system: CHD5 (PCC)
Outline: as §1

ING5 = test system: ING5
Outline: as §1

MLL5 = test system: MLL5
Outline: as §1

DIDO1 = test system: DIDO1
Outline: as §1

KDM5A (3) = test system: KDM5A (3)
Outline: as §1

ING2 = test system: ING2
Outline: as §1

## H3 (21-44): H3 21-44
BPTF (PB); BPTF (PB), GST-tagged
  Array Heatmap value (peptide array binding signal): 0.3717
ING3; ING3, GST-tagged
  Array Heatmap value (peptide array binding signal): 0.4903
PHF13; PHF13, GST-tagged
  Array Heatmap value (peptide array binding signal): 0.6442
AIRE (PP); AIRE (PP), GST-tagged
  Array Heatmap value (peptide array binding signal): 0.5101
KDM7A; KDM7A, GST-tagged
  Array Heatmap value (peptide array binding signal): 0.5232
BAZ2B; BAZ2B, GST-tagged
  Array Heatmap value (peptide array binding signal): 0.4957
KDM5A (1); KDM5A (1), GST-tagged
  Array Heatmap value (peptide array binding signal): 0.5113
PHRF1 (RP); PHRF1 (RP), GST-tagged
  Array Heatmap value (peptide array binding signal): 0.4628
KDM5B (3); KDM5B (3), GST-tagged
  Array Heatmap value (peptide array binding signal): 0.4825
DPF2 (PPC2W2); DPF2 (PPC2W2), GST-tagged
  Array Heatmap value (peptide array binding signal): 0.7579
CHD4 (PPCC); CHD4 (PPCC), GST-tagged
  Array Heatmap value (peptide array binding signal): 0.6413
CHD5 (PPCC); CHD5 (PPCC), GST-tagged
  Array Heatmap value (peptide array binding signal): 0.5941
PHF23; PHF23, GST-tagged
  Array Heatmap value (peptide array binding signal): 0.5869
MORC3 (CW); MORC3 (CW), GST-tagged
  Array Heatmap value (peptide array binding signal): 0.3763
PHF2; PHF2, GST-tagged
  Array Heatmap value (peptide array binding signal): 0.5123
KDM4C (TTP); KDM4C (TTP), GST-tagged
  Array Heatmap value (peptide array binding signal): 0.5571
KDM5B (1); KDM5B (1), GST-tagged
  Array Heatmap value (peptide array binding signal): 0.6648
TAF3; TAF3, GST-tagged
  Array Heatmap value (peptide array binding signal): 0.2755
ING1; ING1, GST-tagged
  Array Heatmap value (peptide array binding signal): 0.59
TRIM66 (PB); TRIM66 (PB), GST-tagged
  Array Heatmap value (peptide array binding signal): 0.5647
SP140L; SP140L, GST-tagged
  Array Heatmap value (peptide array binding signal): 0.3812
ING4; ING4, GST-tagged
  Array Heatmap value (peptide array binding signal): 0.5057
PHF21A; PHF21A, GST-tagged
  Array Heatmap value (peptide array binding signal): 0.4741
RAG2; RAG2, GST-tagged
  Array Heatmap value (peptide array binding signal): 0.2504
PHF8; PHF8, GST-tagged
  Array Heatmap value (peptide array binding signal): 0.4334
CHD5 (PCC); CHD5 (PCC), GST-tagged
  Array Heatmap value (peptide array binding signal): 0.7773
ING5; ING5, GST-tagged
  Array Heatmap value (peptide array binding signal): 0.397
MLL5; MLL5, GST-tagged
  Array Heatmap value (peptide array binding signal): 0.6112
DIDO1; DIDO1, GST-tagged
  Array Heatmap value (peptide array binding signal): 0.7788
KDM5A (3); KDM5A (3), GST-tagged
  Array Heatmap value (peptide array binding signal): 0.4938
ING2; ING2, GST-tagged
  Array Heatmap value (peptide array binding signal): 0.6399

## H3R2me2s + K4me2: H3 1-20
BPTF (PB); GST-tagged BPTF (PB = PHD + Bromodomain), histone peptide array
  Array Heatmap signal, BPTF (PB): 0.3673
ING3; GST-tagged ING3, histone peptide array
  Array Heatmap signal, ING3: 0.5515
PHF13; GST-tagged PHF13, histone peptide array
  Array Heatmap signal, PHF13: 0.6897
AIRE (PP); GST-tagged AIRE (PP), histone peptide array
  Array Heatmap signal, AIRE (PP): 0.4691
KDM7A; GST-tagged KDM7A, histone peptide array
  Array Heatmap signal, KDM7A: 0.4256
BAZ2B; GST-tagged BAZ2B, histone peptide array
  Array Heatmap signal, BAZ2B: 0.454
KDM5A (1); GST-tagged KDM5A (1), histone peptide array
  Array Heatmap signal, KDM5A (1): 0.4761
PHRF1 (RP); GST-tagged PHRF1 (RP), histone peptide array
  Array Heatmap signal, PHRF1 (RP): 0.4714
KDM5B (3); GST-tagged KDM5B (3), histone peptide array
  Array Heatmap signal, KDM5B (3): 0.725
DPF2 (PPC2W2); GST-tagged DPF2 (PPC2W2 = Dual PHD + C2W2-type Zn-finger), histone peptide array
  Array Heatmap signal, DPF2 (PPC2W2): 0.6255
CHD4 (PPCC); GST-tagged CHD4 (PPCC = Dual PHD + Dual Chromodomain), histone peptide array
  Array Heatmap signal, CHD4 (PPCC): 0.5835
CHD5 (PPCC); GST-tagged CHD5 (PPCC = Dual PHD + Dual Chromodomain), histone peptide array
  Array Heatmap signal, CHD5 (PPCC): 0.5636
PHF23; GST-tagged PHF23, histone peptide array
  Array Heatmap signal, PHF23: 0.6298
MORC3 (CW); GST-tagged MORC3 (CW = CW-type Zn-finger), histone peptide array
  Array Heatmap signal, MORC3 (CW): 0.7987
PHF2; GST-tagged PHF2, histone peptide array
  Array Heatmap signal, PHF2: 0.597
KDM4C (TTP); GST-tagged KDM4C (TTP = Tandem Tudor domain + PHD), histone peptide array
  Array Heatmap signal, KDM4C (TTP): 0.5629
KDM5B (1); GST-tagged KDM5B (1), histone peptide array
  Array Heatmap signal, KDM5B (1): 0.7544
TAF3; GST-tagged TAF3, histone peptide array
  Array Heatmap signal, TAF3: 0.4
ING1; GST-tagged ING1, histone peptide array
  Array Heatmap signal, ING1: 0.5374
TRIM66 (PB); GST-tagged TRIM66 (PB = PHD + Bromodomain), histone peptide array
  Array Heatmap signal, TRIM66 (PB): 0.6465
SP140L; GST-tagged SP140L, histone peptide array
  Array Heatmap signal, SP140L: 0.3393
ING4; GST-tagged ING4, histone peptide array
  Array Heatmap signal, ING4: 0.4666
PHF21A; GST-tagged PHF21A, histone peptide array
  Array Heatmap signal, PHF21A: 0.4639
RAG2; GST-tagged RAG2, histone peptide array
  Array Heatmap signal, RAG2: 0.4992
PHF8; GST-tagged PHF8, histone peptide array
  Array Heatmap signal, PHF8: 0.5813
CHD5 (PCC); GST-tagged CHD5 (PCC = PHD + Dual Chromodomain), histone peptide array
  Array Heatmap signal, CHD5 (PCC): 0.8074
ING5; GST-tagged ING5, histone peptide array
  Array Heatmap signal, ING5: 0.3606
MLL5; GST-tagged MLL5, histone peptide array
  Array Heatmap signal, MLL5: 0.5794
DIDO1; GST-tagged DIDO1, histone peptide array
  Array Heatmap signal, DIDO1: 0.7352
KDM5A (3); GST-tagged KDM5A (3), histone peptide array
  Array Heatmap signal, KDM5A (3): 0.7167
ING2; GST-tagged ING2, histone peptide array
  Array Heatmap signal, ING2: 0.6563
